Data reported in BigSolDB 2.1.

O=C(O)c1cc2ccccc2cc1O
solubility (mole fraction) (in acetic acid, 293.15 K): 0.00556 | solubility (mole fraction) (in acetic acid, 298.15 K): 0.00672 | solubility (mole fraction) (in acetic acid, 303.15 K): 0.00786 | solubility (mole fraction) (in acetic acid, 308.15 K): 0.00913 | solubility (mole fraction) (in acetic acid, 313.15 K): 0.0105 | solubility (mole fraction) (in acetic acid, 318.15 K): 0.0121 | solubility (mole fraction) (in acetic acid, 323.15 K): 0.014 | solubility (mole fraction) (in acetic acid, 328.15 K): 0.0164 | solubility (mole fraction) (in acetic acid, 333.15 K): 0.0192 | solubility (mole fraction) (in acetone, 293.15 K): 0.0363 | solubility (mole fraction) (in acetone, 298.15 K): 0.0389 | solubility (mole fraction) (in acetone, 303.15 K): 0.0423 | solubility (mole fraction) (in acetone, 308.15 K): 0.0461 | solubility (mole fraction) (in acetone, 313.15 K): 0.0506 | solubility (mole fraction) (in acetone, 318.15 K): 0.0547 | solubility (mole fraction) (in acetone, 323.15 K): 0.0607 | solubility (mole fraction) (in acetone, 328.15 K): 0.0661 | solubility (mole fraction) (in ethanol, 293.15 K): 0.0218 | solubility (mole fraction) (in ethanol, 298.15 K): 0.0258 | solubility (mole fraction) (in ethanol, 303.15 K): 0.0294 | solubility (mole fraction) (in ethanol, 308.15 K): 0.0331 | solubility (mole fraction) (in ethanol, 313.15 K): 0.037 | solubility (mole fraction) (in ethanol, 318.15 K): 0.0415 | solubility (mole fraction) (in ethanol, 323.15 K): 0.0469 | solubility (mole fraction) (in ethanol, 328.15 K): 0.0537 | solubility (mole fraction) (in ethanol, 333.15 K): 0.0619 | solubility (mole fraction) (in ethyl acetate, 293.15 K): 0.0222 | solubility (mole fraction) (in ethyl acetate, 298.15 K): 0.0251 | solubility (mole fraction) (in ethyl acetate, 303.15 K): 0.0278 | solubility (mole fraction) (in ethyl acetate, 308.15 K): 0.0309 | solubility (mole fraction) (in ethyl acetate, 313.15 K): 0.0338 | solubility (mole fraction) (in ethyl acetate, 318.15 K): 0.0375 | solubility (mole fraction) (in ethyl acetate, 323.15 K): 0.0417 | solubility (mole fraction) (in ethyl acetate, 328.15 K): 0.0468 | solubility (mole fraction) (in ethyl acetate, 333.15 K): 0.0533 | solubility (mole fraction) (in isobutanol, 293.15 K): 0.0147 | solubility (mole fraction) (in isobutanol, 298.15 K): 0.0174 | solubility (mole fraction) (in isobutanol, 303.15 K): 0.0207 | solubility (mole fraction) (in isobutanol, 308.15 K): 0.0236 | solubility (mole fraction) (in isobutanol, 313.15 K): 0.0279 | solubility (mole fraction) (in isobutanol, 318.15 K): 0.0316 | solubility (mole fraction) (in isobutanol, 323.15 K): 0.0377 | solubility (mole fraction) (in isobutanol, 328.15 K): 0.0421 | solubility (mole fraction) (in isobutanol, 333.15 K): 0.0501 | solubility (mole fraction) (in isopropanol, 293.15 K): 0.0234 | solubility (mole fraction) (in isopropanol, 298.15 K): 0.0267 | solubility (mole fraction) (in isopropanol, 303.15 K): 0.0306 | solubility (mole fraction) (in isopropanol, 308.15 K): 0.035 | solubility (mole fraction) (in isopropanol, 313.15 K): 0.0406 | solubility (mole fraction) (in isopropanol, 318.15 K): 0.0446 | solubility (mole fraction) (in isopropanol, 323.15 K): 0.0514 | solubility (mole fraction) (in isopropanol, 328.15 K): 0.0565 | solubility (mole fraction) (in isopropanol, 333.15 K): 0.0649 | solubility (mole fraction) (in methanol, 293.15 K): 0.0131 | solubility (mole fraction) (in methanol, 298.15 K): 0.0155 | solubility (mole fraction) (in methanol, 303.15 K): 0.018 | solubility (mole fraction) (in methanol, 308.15 K): 0.0208 | solubility (mole fraction) (in methanol, 313.15 K): 0.0239 | solubility (mole fraction) (in methanol, 318.15 K): 0.0271 | solubility (mole fraction) (in methanol, 323.15 K): 0.0313 | solubility (mole fraction) (in methanol, 328.15 K): 0.0358 | solubility (mole fraction) (in methanol, 333.15 K): 0.0415 | solubility (mole fraction) (in methyl acetate, 293.15 K): 0.0204 | solubility (mole fraction) (in methyl acetate, 298.15 K): 0.0225 | solubility (mole fraction) (in methyl acetate, 303.15 K): 0.025 | solubility (mole fraction) (in methyl acetate, 308.15 K): 0.0286 | solubility (mole fraction) (in methyl acetate, 313.15 K): 0.0318 | solubility (mole fraction) (in methyl acetate, 318.15 K): 0.0349 | solubility (mole fraction) (in methyl acetate, 323.15 K): 0.0402 | solubility (mole fraction) (in methyl acetate, 328.15 K): 0.0447 | solubility (mole fraction) (in n-butanol, 293.15 K): 0.0268 | solubility (mole fraction) (in n-butanol, 298.15 K): 0.03 | solubility (mole fraction) (in n-butanol, 303.15 K): 0.0346 | solubility (mole fraction) (in n-butanol, 308.15 K): 0.0382 | solubility (mole fraction) (in n-butanol, 313.15 K): 0.0431 | solubility (mole fraction) (in n-butanol, 318.15 K): 0.0466 | solubility (mole fraction) (in n-butanol, 323.15 K): 0.0529 | solubility (mole fraction) (in n-butanol, 328.15 K): 0.0579 | solubility (mole fraction) (in n-butanol, 333.15 K): 0.0663 | solubility (mole fraction) (in n-propanol, 293.15 K): 0.0234 | solubility (mole fraction) (in n-propanol, 298.15 K): 0.0259 | solubility (mole fraction) (in n-propanol, 303.15 K): 0.0288 | solubility (mole fraction) (in n-propanol, 308.15 K): 0.0323 | solubility (mole fraction) (in n-propanol, 313.15 K): 0.0372 | solubility (mole fraction) (in n-propanol, 318.15 K): 0.0402 | solubility (mole fraction) (in n-propanol, 323.15 K): 0.0453 | solubility (mole fraction) (in n-propanol, 328.15 K): 0.0513 | solubility (mole fraction) (in n-propanol, 333.15 K): 0.0574
